Measured values as given in US10058524B2, “Methods for improving joint function” (Tersus Life Sciences, LLC, priority 2015, dated 2018).

Legend:
Type in all cases: in vivo
Human Subjects [1] = test: Knee Discomfort Improvement Scale; details: group n=20
Text: (§1) Goniometry was used to measure knee range of motion. To measure Knee Extension, subjects were instructed to extend the left or right knee to full extension without changing the position of their pelvis and lumbar spine. An inclinometer was placed along the subject's shin so as to document the range of motion in degrees. To measure Knee Flexion, subjects were asked to lie on their stomach with their shins off the end of the table, and were instructed to fully extend their knees. The subject was then asked to actively flex his/her knee to a full flexion position. The following scales and questionnaires: Stanford Exercise Behavior Scale—Stretching and Aerobics, Knee-related QOL subscale of KOOS Knee Survey, SF-12, and Knee Discomfort Improvement Scale were completed by the subjects at the initial screening.
Knee Discomfort Improvement Scale refers to the response to the question “Is your overall knee discomfort improving?”, rated using a 3-point scale where zero is “Not at All”, 1 is “Moderately” and 2 is “Definitely”.

Human Subjects [2] = test: Stanford Exercise Behavior Scale - Stretching and Aerobics
Text: as §1
Experimental endpoints included Change in Time of Onset and Offset of Discomfort, Changes in 6-Minute Timed Walk, Change in Knee Range of Motion as measured by goniometry including Left and Right Knee Extension and Left and Right Knee Flexion. Stanford Exercise Scale—Stretching and Aerobics was used to measure the effect of the C16:1n7-palmitoleate composition on physical activity levels.

Human Subjects [3] = test: Stepmill Protocol: time of onset and offset of knee discomfort
Method: The study duration was thirty-seven (37) days with a total of 4 visits per subject. The initial screening visit (Visit 1) occurred 7 days prior to the initiation of the study (Day −7). Subjects arrived in the clinic having fasted for 10 hours in preparation for Visit 1. Subjects underwent the informed consent process and were screened for the presence of all the inclusion criteria and the absence of all the exclusion criteria. The screening process also included taking a detailed medical history, recording prior and concomitant medications, performing a physical examination, and documenting vital signs, and anthropometric measures. To determine eligibility, subjects continuously used the Stepmill at a set rate for 10 minutes until they complained of knee discomfort (in at least one knee) that scored at least 5 on an 11 point numeric pain rating scale. The time of onset of joint pain was recorded. Subjects were also instructed to inform the clinician when their discomfort began to subside and when their discomfort completely resolved.
Baseline assessments included evaluating the pain or discomfort experienced by subjects during exercise testing. Subjects were instructed to exercise on a StepMill® model 7000PT (StairMaster® Health & Fitness Products, Inc., Kirkland, Wash.) at a set rate (Level 4) for 10 minutes. The following knee discomfort measures were recorded from the beginning of the Stepmill test: (1) time of onset of initial joint pain; (2) time of onset of maximum joint pain; (3) time at which initial improvement in knee joint pain was achieved; and (4) time of complete recovery from knee joint pain. Subjects that reported a discomfort level of 5 on an 11 point (0-10) Likert scale in at least one knee within the 10-minute period were selected. Once the requisite pain level was achieved, the subject was asked to continue stepping for an additional two minutes in order to record the maximum pain level reached before disembarking from the stepmill. Subjects who experienced a pain score of 5 (or greater) within one minute of starting the stress test were excluded.
(§2) Subjects who met all of the study inclusion criteria and none of the exclusion criteria were randomly assigned to either the C16:1n7-palmitoleate-treatment or placebo groups. The C16:1n7-palmitoleate composition included palmitoleic acid, gelatin, glycerin and purified water whereas the placebo included medium chain triglycerides. […] The subjects and the clinical staff were unaware of what group a particular subject was allocated to. Baseline assessments for joint pain and knee range of motion in a subject were obtained via the 6-Minute Timed Walk, Stepmill Protocol, and goniometry. At the end of the visit, subjects were provided with a 7-day supply of the C16:1n7-palmitoleate composition or placebo and daily dosing diaries. Subjects were instructed to ingest a single capsule of the C16:1n7-palmitoleate composition or the placebo per day.
(§3) Subjects returned to the clinic at Visit 3 (Day 7) for repeat assessments of joint pain, range of motion, activity levels and health-related quality of life scores. After the performance-based physical functioning measures were evaluated, the subjects were provided with a 23-day supply of the C16:1n7-palmitoleate composition or placebo. Subjects returned to the clinic at Visit 4 (Day 30), which marked the end of the study, for reevaluation of the performance-based physical functioning measures.
The time of onset of discomfort or pain level refers to the time at which the minimum or maximum discomfort or pain level is reached. The time of onset of minimum discomfort or pain level refers to the time at which minimum discomfort or pain level is reached. The time of onset of maximum discomfort or pain level refers to the time at which maximum discomfort or pain level is reached.
As used herein, the time of offset of discomfort is the time at which a level of relief is reached after performing the Stepmill Protocol described herein. […]

Human Subjects [4] = test: Knee-related QOL subscale of KOOS Knee Survey
Text: as §1
Knee injury and Osteoarthritis Outcome Score (KOOS) is an instrument to assess the patients' opinion about their knee and knee-associated problems. For this study, only the Knee Related QOL subscale was used.

Human Subjects [5] = test: SF-12 survey (physical and mental component scores)
Text: as §1
Quality of life (QOL) was assessed using Change in SF-12 and Knee-related QOL subscale of KOOS Knee Survey, and Knee Discomfort Improvement Scale. The SF-12 is a multipurpose short form survey with 12 questions, all selected from the SF-36 Health Survey. The questions were combined, scored, and weighted to create two scales that provide glimpses into the subject's mental and physical functioning and overall health-related-quality of life. Physical and Mental Health Component Summary Scores were computed using the scores of the twelve questions and a range from 0 to 100, where zero corresponds to the lowest level of health measured by the scales and 100 corresponds to the highest level of health.

Human Subjects [6] = test: 6-Minute Timed Walk; details: between treated and placebo groups, any time point
Method: Other performance-based physical functioning measures including the 6-Minute Timed Walk and Knee Range of Motion (ROM) were also performed by the subjects. In the 6-Minute Timed Walk, subjects walked up and down a hallway for 6 minutes and were instructed to walk as rapidly as possible within their comfort zone, and as rapidly as possible without causing themselves any pain.
as §2, with “At the end of the visit, subjects were provided with a 7-day supply of the C16:1n7-palmitoleate composition or placebo and daily dosing diaries. Subjects were instructed to ingest a single capsule of the C16:1n7-palmitoleate composition or the placebo per day.” left out
as §3, with “Subjects returned to the clinic at Visit 4 (Day 30), which marked the end of the study, for reevaluation of the performance-based physical functioning measures.” left out

Human Subjects [7] = test: Knee range of motion by goniometry (extension and flexion)
Text: as §1, §2, §3
Goniometric measurements, which record the active and passive range of motion in joints like the knee, are often used in evaluating joint function.

[8] = between treated and placebo groups, any time point
[9] = within-group, baseline to any time point

SMILES: CCCCCC/C=C\CCCCCCCC(=O)O [C16:1n7-palmitoleate, palmitoleic acid]
- number of subjects that reported moderate improvements in knee discomfort (Human Subjects [1]; Day 0 (baseline)): 4
- number of subjects that reported definite improvements in knee discomfort (Human Subjects [1]; Day 7): 2
- number of subjects that reported moderate improvements in knee discomfort (Human Subjects [1]; Day 7): 10
- number of subjects that reported moderate improvements in knee discomfort (Human Subjects [1]; Day 30): 8 subjects
- number of subjects that reported definite improvements in knee discomfort (Human Subjects [1]; Day 30, comparable to placebo): 8
- average minutes per week for aerobic exercise (Human Subjects [2]; [8]): no statistically significant differences
- average minutes per week for stretching exercise (Human Subjects [2]; [8]): no statistically significant differences
- time spent stretching (Human Subjects [2]; within-group, after 30 days of supplementation, p=0.066): non-statistically significant yet clinically significant increase
- average minutes per week for aerobic exercise (Human Subjects [2]; [9]): no statistically significant changes
- average time to report maximum discomfort or pain level (Human Subjects [3]; after 30 days, placebo 5.43±2.53 minutes): 6.89 ± 2.59 min
- time of onset of minimum discomfort or pain level (Human Subjects [3]; between treated and placebo groups): no statistically significant difference
- time of offset of maximum discomfort (Human Subjects [3]; [8]): no statistically significant difference
- time of offset of minimum discomfort (Human Subjects [3]; [8]): no statistically significant difference
- changes in the time of onset of maximum discomfort from Day 0 to Day 30 (Human Subjects [3]; between treated and placebo groups, p=0.007): statistically significant difference
- time to reach maximum discomfort or pain level (Human Subjects [3]; between treated and placebo groups, treated taking more time): significantly different
- time of onset of minimum discomfort or pain level (Human Subjects [3]; within-group, 7 days vs Day 0, p=0.013, one capsule per day): statistically significant increase
- time of onset of minimum discomfort or pain level (Human Subjects [3]; within-group, 30 days vs Day 0, p=0.005, one capsule per day): statistically significant increase
- time of onset of maximum discomfort (Human Subjects [3]; within-group, 30 days vs Day 0, p=0.012): significantly increased
- time of offset of maximum discomfort (Human Subjects [3]; within-group, 30 days vs Day 0, p=0.014): decrease
- time of minimum offset of discomfort (Human Subjects [3]; [9]): no statistically significant changes
- knee-related quality of life scores (Human Subjects [4]; [8]): no statistically significant differences
- knee-related quality of life scores (Human Subjects [4]; within-group, Day 7 vs Day 0, p=0.002): increase
- knee-related quality of life scores (Human Subjects [4]; within-group, Day 30 vs Day 0, p<0.001): increase
- mental component score of the SF-12 survey (Human Subjects [5]; [8]): no statistically significant differences
- physical component score of the SF-12 survey (Human Subjects [5]; [8]): no statistically significant differences
- increase in the physical component score of the SF-12 survey (Human Subjects [5]; within-group, 30 days vs Day 0, p=0.031): 8.93%
- mental component score of the SF-12 survey (Human Subjects [5]; [9]): no statistically significant changes
- distance covered during the 6-minute timed walk (Human Subjects [6]): no statistically significant difference
- change in left knee flexion (Human Subjects [7]; after 7 days of supplementation): apparent
- right knee extension (Human Subjects [7]; [8]): no statistically significant difference
- right knee flexion (Human Subjects [7]; [8]): no statistically significant difference
- left knee flexion (Human Subjects [7]; within-group, 30 days vs Day 0, p=0.015): significant increase
- right knee flexion (Human Subjects [7]; within-group, 30 days vs Day 0, p=0.019): significant increase
- left knee extension (Human Subjects [7]; within-group, 30 days vs Day 0, p=0.028): significant increase
- right knee extension (Human Subjects [7]; [9]): no statistically significant changes
